The values that follow come from ChEMBL document CHEMBL5126628, “Aspersterols A-D, Ergostane-Type Sterols with an Unusual Unsaturated Side Chain from the Deep-Sea-Derived Fungus Aspergillus unguis” (J Nat Prod, 2022).

Structures can show the parent of a compound that is named as a salt.

The subject of one assay is NUGC-3. As to the kind of experiment: Growth inhibition of human NUGC-3 cells by SRB assay. The assay is classed as functional.
In a further assay the test system is PC-3. The assay can be described thus: Growth inhibition of human PC-3 cells by SRB assay. Format: functional.
For another assay, the system named is MDA-MB-231. As to the kind of experiment: Growth inhibition of human MDA-MB-231 cells by SRB assay. Format: functional.
In another assay the test system is ACHN. As to the kind of experiment: Growth inhibition of human ACHN cells by SRB assay. The assay is classed as functional.
A further assay relates to HCT-15. The assay can be described thus: Growth inhibition of human HCT-15 cells by SRB assay. Format: functional.
For another assay, the system named is NCI-H23. As to the kind of experiment: Growth inhibition of human NCI-H23 cells by SRB assay. Format: functional.
For assay [1], the system named is RAW264.7. As to the kind of experiment: Antiinflammatory activity in mouse RAW264.7 cells assessed as reduction in LPS-induced nitric oxide production by griess assay. The assay is classed as functional, cell-based.
In assay [2] the test system is RAW264.7. As to the kind of experiment: Antiinflammatory activity in mouse RAW264.7 cells assessed as reduction in LPS-induced IL6 mRNA expression […]. Format: functional, cell-based. To be noted: DDE = dose-dependent effect.
For assay [3], the system named is RAW264.7. The assay can be described thus: Antiinflammatory activity in mouse RAW264.7 cells assessed as reduction in LPS-induced iNOS mRNA expression […]. As to conditions: DDE = dose-dependent effect. Format: functional, cell-based.
Assay [4] relates to RAW264.7. As to the kind of experiment: Antiinflammatory activity in mouse RAW264.7 cells assessed as reduction in LPS-induced IL6 production […]. The assay is classed as functional, cell-based. As to conditions: DDE = dose-dependent effect.
The subject of assay [5] is RAW264.7. The assay can be described thus: Antiinflammatory activity in mouse RAW264.7 cells assessed as reduction in LPS-induced nitrite production by griess assay. Format: functional, cell-based. As to conditions: DDE = dose-dependent effect.

As to `CC(/C=C/[C@H](C)C(C)C)=C1\[C@H](O)C[C@H]2c3cc4c(c(C)c3CC[C@]12C)CC[C@H](O)C4`, the GI50 was 4.2 µM in the assay with NUGC-3; 3.9 µM in the assay with PC-3; 3.4 µM with MDA-MB-231; 4.3 µM in the assay on ACHN; 4.5 µM in the assay with HCT-15; 4.4 µM in the assay on NCI-H23.
Consider `CC(/C=C/[C@H](C)C(C)C)=C1\[C@H](O)C[C@H]2C3=CC(=O)[C@@]4(O)C[C@@H](O)CC[C@]4(C)[C@H]3CC[C@]12C`, for which the GI50 with NUGC-3, with PC-3, with MDA-MB-231, in the assay on ACHN, with HCT-15 and in the assay with NCI-H23 was > 30 µM in each case. In the assay on RAW264.7 [1], the IC50 was 14.5 µM.
As to `CC(/C=C/[C@H](C)C(C)C)=C1\CC[C@H]2C3=CC(=O)[C@@]4(O)C[C@@H](O)CC[C@]4(C)[C@H]3CC[C@]12C`, the GI50 with NUGC-3 came out at 11.5 µM; with PC-3, 13.8 µM; in the assay with MDA-MB-231 it was 13.5 µM; with ACHN, 12.5 µM; in the assay with HCT-15 it was 13.2 µM; with NCI-H23, 10.3 µM. Besides, the inhibition entry in the assay on RAW264.7 [2], in the assay with RAW264.7 [3], with RAW264.7 [4] and in the assay with RAW264.7 [5] was “Dde” throughout. Also, the IC50 in the assay with RAW264.7 [1] was determined as 11.6 µM.
Regarding `COc1cccc2c1C(=O)c1c(O)c3c(c(O)c1C2=O)C[C@@](O)(C(=O)CO)C[C@@H]3O[C@H]1C[C@H](N)[C@H](O)[C@H](C)O1` [DOXORUBICIN HYDROCHLORIDE], the GI50 in the assay with NUGC-3 is 0.08 µM; in the assay with PC-3, 0.09 µM; in the assay with MDA-MB-231, 0.08 µM; with ACHN, 0.07 µM; in the assay with HCT-15 it was 0.09 µM; with NCI-H23 it was 0.08 µM.
`CC(/C=C/[C@H](C)C(C)C)=C1\CC[C@H]2C3=CC(=O)[C@@]4(O)C[C@@H](O)CC[C@]4(C)[C@@]3(O)CC[C@]12C`: the GI50 in the assay on NUGC-3, with PC-3, in the assay on MDA-MB-231, in the assay with ACHN, in the assay with HCT-15 and in the assay on NCI-H23 was > 30 µM throughout. Also, the IC50 in the assay with RAW264.7 [1] was 19.5 µM.
